Reference: PubChem BioAssay AID330 (DTP/NCI, 2004)
Toxic doses and inconclusive results are not listed.

Tested on: P388 leukemia ip, CD2F1 mice, survival T/C
Test: NCI In Vivo Anticancer Drug Screen. Data for tumor model P388 Leukemia (intraperitoneal) in CD2F1 (CDF1) mice
Details: endpoint: median survival time, higher = longer survival
How it was run: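 Mice carrying the transplanted tumor received test compound or vehicle. Survival was recorded in each group, and the value is the treated-group measurement divided by that of the vehicle-treated control group.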

[1] = dose: 50.0 mg/kg/injection, schedule: Q01DX005 (ip), vehicle: Klucel (hydroxypropylcellulose) (HPC)
[2] = dose: 50.0 mg/kg/injection, schedule: Q01DX009 (ip), vehicle: saline with Tween-80
[3] = dose: 100.0 mg/kg/injection, schedule: Q01DX009 (ip), vehicle: saline with Tween-80

CB1N(c2ccccc2)N=NN1C(C)(C)C
T/C (dose: 15.0 mg/kg/injection, schedule: Q01DX005 (ip), vehicle: Klucel (hydroxypropylcellulose) (HPC)): 97 % of control
T/C (dose: 30.0 mg/kg/injection, schedule: Q01DX005 (ip), vehicle: Klucel (hydroxypropylcellulose) (HPC)): 102 % of control
T/C (dose: 60.0 mg/kg/injection, schedule: Q01DX005 (ip), vehicle: Klucel (hydroxypropylcellulose) (HPC)): 107 % of control
T/C (dose: 120.0 mg/kg/injection, schedule: Q01DX005 (ip), vehicle: Klucel (hydroxypropylcellulose) (HPC)): 110 % of control
T/C (dose: 240.0 mg/kg/injection, schedule: Q01DX005 (ip), vehicle: Klucel (hydroxypropylcellulose) (HPC)): 91 % of control

CN1C(=O)/C(=C2\SC(=O)N(CN3CCOCC3)C2=O)c2ccccc21
T/C [1]: 106 % of control
T/C (dose: 100.0 mg/kg/injection, schedule: Q01DX005 (ip), vehicle: Klucel (hydroxypropylcellulose) (HPC)): 99 % of control
T/C (dose: 200.0 mg/kg/injection, schedule: Q01DX005 (ip), vehicle: Klucel (hydroxypropylcellulose) (HPC)): 104 % of control

COc1cc2c3c(c1O)-c1cc4c(cc1CC3N(C)CC2)OCO4 (stereo not given)
T/C (dose: 10.0 mg/kg/injection, schedule: Q01DX009 (ip), vehicle: saline with Tween-80): 102 % of control
T/C (dose: 20.0 mg/kg/injection, schedule: Q01DX009 (ip), vehicle: saline with Tween-80): 104 % of control
T/C (dose: 40.0 mg/kg/injection, schedule: Q01DX009 (ip), vehicle: saline with Tween-80): 98 % of control
T/C (dose: 100.0 mg/kg/injection, schedule: Q04DX002 (ip), vehicle: saline with Tween-80): 97 % of control

O=C1N(c2cccc(F)c2)C(=O)N1c1cccc(F)c1
T/C [2]: 115 % of control
T/C [3]: 100 % of control
T/C (dose: 200.0 mg/kg/injection, schedule: Q01DX009 (ip), vehicle: saline with Tween-80): 98 % of control

COc1cc2c(cc1OC)C1C(C(=O)O)c3ccc(OC)c(OC)c3C(=O)N1CC2 (stereo not given)
T/C (dose: 50.0 mg/kg/injection, schedule: Q04DX003 (ip), vehicle: distilled water + Tween-80): 100 % of control
T/C (dose: 100.0 mg/kg/injection, schedule: Q04DX003 (ip), vehicle: distilled water + Tween-80): 101 % of control
T/C (dose: 200.0 mg/kg/injection, schedule: Q04DX003 (ip), vehicle: distilled water + Tween-80): 103 % of control
T/C (dose: 400.0 mg/kg/injection, schedule: Q04DX003 (ip), vehicle: distilled water + Tween-80): 89 % of control

COc1ccc(/C=C/C(=O)OC2CC34CCNC35CC(OC5(OC)C2OC)c2ccc(OC)c(O)c24)cc1O (stereo not given)
T/C (dose: 12.5 mg/kg/injection, schedule: Q01DX005 (ip), vehicle: Klucel (hydroxypropylcellulose) (HPC)): 100 % of control
T/C (dose: 25.0 mg/kg/injection, schedule: Q01DX005 (ip), vehicle: Klucel (hydroxypropylcellulose) (HPC)): 100 % of control
T/C [1]: 97 % of control

C1O[C@@H]1[C@H]1CO1
T/C (dose: 6.25 mg/kg/injection, schedule: Q01DX009 (ip), vehicle: saline): 104 % of control
T/C (dose: 6.25 mg/kg/injection, schedule: Q04DX003 (ip), vehicle: saline): 120 % of control
T/C (dose: 12.5 mg/kg/injection, schedule: Q01DX009 (ip), vehicle: saline): 109 % of control
T/C (dose: 12.5 mg/kg/injection, schedule: Q04DX003 (ip), vehicle: saline): 120 % of control
T/C (dose: 25.0 mg/kg/injection, schedule: Q01DX009 (ip), vehicle: saline): 157 % of control
T/C (dose: 25.0 mg/kg/injection, schedule: Q04DX003 (ip), vehicle: saline): 100 % of control

Cc1cc2c(=O)c3ccccc3oc2c(C#N)c1C
T/C (dose: 60.0 mg/kg/injection, schedule: Q01DX005 (ip), vehicle: saline): 97 % of control
T/C (dose: 120.0 mg/kg/injection, schedule: Q01DX005 (ip), vehicle: saline): 91 % of control
T/C (dose: 240.0 mg/kg/injection, schedule: Q01DX005 (ip), vehicle: saline): 89 % of control

Cn1c2c(c(=O)n(C)c1=O)Cc1cc(CC(=O)O)ccc1N2
T/C (dose: 100.0 mg/kg/injection, schedule: Q01DX001 (ip), vehicle: saline with Tween-80): 99 % of control
T/C (dose: 200.0 mg/kg/injection, schedule: Q01DX001 (ip), vehicle: saline with Tween-80): 97 % of control
T/C (dose: 400.0 mg/kg/injection, schedule: Q01DX001 (ip), vehicle: saline with Tween-80): 96 % of control

CCN(CC)CCNc1ccc(C)c2sc3cc(O)ccc3c(=O)c12
T/C (dose: 50.0 mg/kg/injection, schedule: Q01DX005 (ip), vehicle: saline): 107 % of control
T/C (dose: 100.0 mg/kg/injection, schedule: Q01DX005 (ip), vehicle: saline): 108 % of control
T/C (dose: 200.0 mg/kg/injection, schedule: Q01DX005 (ip), vehicle: saline): 106 % of control

Cc1ccc2c(O)c3c(cc2c1)C(=O)c1c2c(cc(O)c1C3=O)C1(C)OC(O2)C(O)C(N(C)C)C1O (stereo not given)
T/C (dose: 1.6 mg/kg/injection, schedule: Q01DX009 (ip), vehicle: other): 97 % of control
T/C (dose: 3.13 mg/kg/injection, schedule: Q01DX009 (ip), vehicle: other): 98 % of control
T/C (dose: 6.25 mg/kg/injection, schedule: Q01DX009 (ip), vehicle: other): 87 % of control
T/C (dose: 12.5 mg/kg/injection, schedule: Q01DX009 (ip), vehicle: other): 116 % of control
T/C (dose: 25.0 mg/kg/injection, schedule: Q01DX009 (ip), vehicle: other): 97 % of control

COc1c2occc2c(S(N)(=O)=O)c2ccc(=O)oc12
T/C (dose: 25.0 mg/kg/injection, schedule: Q01DX009 (ip), vehicle: saline with Tween-80): 106 % of control
T/C [2]: 103 % of control
T/C [3]: 106 % of control
